According to ChEMBL document CHEMBL4393732, “Influence of nisin hinge-region variants on lantibiotic immunity and resistance proteins” (Bioorg Med Chem, 2019):
Activity calls are given as the source filed them. No cut-off for these calls is given here.

Legend:
[1] = (§1) Resistance ratio of IC50 for Inhibition of Lactococcus lactis Nis1 harboring in Lactococcus lactis NZ9000 assessed as decrease in Nis1 induced resistance measured as increase in growth inhibition to IC50 for growth inhibition of nisin-sensitive Lactococcus lactis NZ9000Cm incubated for 5 hrs by optical density based plate reader assay
[2] = as §1, with “inhibition” for “Inhibition”, “Streptococcus agalactiae COH1 NSR transfected” for “Lactococcus lactis Nis1 harboring”, “NSR” for “Nis1”
[3] = Inhibition of Streptococcus agalactiae COH1 NSR transfected in Lactococcus lactis NZ9000 assessed as decrease in NSR-induced resistance by measuring increase in growth inhibition incubated for 5 hrs by optical density based plate reader assay
[4] = Inhibition of Lactococcus lactis Nis1 harboring in Lactococcus lactis NZ9000 assessed as decrease in Nis1 induced resistance measured as increase in growth inhibition incubated for 5 hrs by optical density based plate reader assay
[5] = Inhibition of Streptococcus agalactiae COH1 NsrFP transfected in Lactococcus lactis NZ9000 assessed as decrease in NsrFP-induced resistance by measuring increase in growth inhibition incubated for 5 hrs by optical density based plate reader assay
[6] = as §1, with “for inhibition” for “for Inhibition”, “lactis ATP-binding cassette transporter NisFEG” for “lactis Nis1”, “in NisFEG” for “in Nis1”
[7] = as §1, with “inhibition” for “Inhibition”, “Streptococcus agalactiae COH1 NsrFP transfected” for “Lactococcus lactis Nis1 harboring”, “NsrFP” for “Nis1”
Lactococcus lactis [8] = experiment: Induction of pore formation in Lactococcus lactis NZ9000Cm assessed as increase in florescence intensity at 3 times antibacterial IC50 measured after 200 secs by sytox green-based fluorescence assay; type: functional, organism-based
[9] = Inhibition of Lactococcus lactis ATP-binding cassette transporter NisFEG harboring in Lactococcus lactis NZ9000 assessed as decrease in NisFEG induced resistance measured as increase in growth inhibition incubated for 5 hrs by optical density based plate reader assay
Lactococcus lactis [10] = experiment: Growth inhibition of nisin-sensitive Lactococcus lactis NZ9000Cm incubated for 5 hrs by optical density based plate reader assay; type: functional, organism-based
Lactococcus lactis [11] = experiment: Induction of pore formation in Lactococcus lactis NZ9000Cm assessed as increase in florescence intensity at 3 times antibacterial IC50 measured after 200 secs by sytox green-based fluorescence assay relative to control; type: functional

Work on `C=C(NC(=O)[C@@H](NC(=O)[C@H](Cc1cnc[nH]1)NC(=O)[C@@H](NC(=O)[C@H](CO)NC(=O)[C@@H]1CS[C@@H](C)[C@@H]2NC(=O)[C@H](C)NC(=O)[C@@H](NC(=O)[C@@H](NC(=O)[C@@H](NC(=O)[C@H](CCCCN)NC(=O)[C@H](CCSC)NC(=O)[C@H](CC(N)=O)NC(=O)[C@@H]3CS[C@@H](C)[C@H](NC(=O)[C@H](CCCCN)NC(=O)[C@@H]4CS[C@@H](C)[C@H](NC(=O)[C@@H]5CSC[C@H](NC(=O)/C(=C/C)NC(=O)[C@@H](N)[C@@H](C)CC)C(=O)N[C@@H]([C@@H](C)CC)C(=O)NC(=C)C(=O)N[C@@H](CC(C)C)C(=O)N5)C(=O)N5CCC[C@H]5C(=O)NCC(=O)N4)C(=O)NCC(=O)N[C@@H](C)C(=O)N[C@@H](CC(C)C)C(=O)N[C@@H](CCSC)C(=O)NCC(=O)N3)[C@@H](C)CC)C(C)C)[C@H](C)SC[C@H](NC2=O)C(=O)N[C@@H](Cc2cnc[nH]2)C(=O)N1)[C@@H](C)CC)C(C)C)C(=O)N[C@@H](CCCCN)C(=O)O` yielded a Ratio IC50 [1] of 3.29, a Ratio IC50 [2] of 2.91 and an IC50 [3] of 64.8 nM. For the same compound, the IC50 [4] was 73.2 nM, the IC50 [5] was 44.4 nM and the Ratio IC50 [6] was 1.66. The Ratio IC50 [7] was 1.99, the Activity (Lactococcus lactis [8]) was “Active” and the IC50 [9] was 36.9 nM. The IC50 (Lactococcus lactis [10]) was 22.3 nM.
`C=C(NC(=O)[C@@H](NC(=O)[C@H](Cc1cnc[nH]1)NC(=O)[C@@H](NC(=O)[C@H](CO)NC(=O)[C@@H]1CS[C@@H](C)[C@@H]2NC(=O)[C@H](C)NC(=O)[C@@H](NC(=O)[C@H](CCCCN)NC(=O)[C@H](CCSC)NC(=O)[C@@H](NC(=O)[C@@H](NC(=O)[C@H](CC(N)=O)NC(=O)[C@@H]3CS[C@@H](C)[C@H](NC(=O)[C@H](CCCCN)NC(=O)[C@@H]4CS[C@@H](C)[C@H](NC(=O)[C@@H]5CSC[C@H](NC(=O)/C(=C/C)NC(=O)[C@@H](N)[C@@H](C)CC)C(=O)N[C@@H]([C@@H](C)CC)C(=O)NC(=C)C(=O)N[C@@H](CC(C)C)C(=O)N5)C(=O)N5CCC[C@H]5C(=O)NCC(=O)N4)C(=O)NCC(=O)N[C@@H](C)C(=O)N[C@@H](CC(C)C)C(=O)N[C@@H](CCSC)C(=O)NCC(=O)N3)[C@@H](C)CC)C(C)C)[C@H](C)SC[C@H](NC2=O)C(=O)N[C@@H](Cc2cnc[nH]2)C(=O)N1)[C@@H](C)CC)C(C)C)C(=O)N[C@@H](CCCCN)C(=O)O` showed a Ratio IC50 [1] of 9.46, a Ratio IC50 [2] of 12.4 and an IC50 [3] of 102 nM. The IC50 [4] was 77.3 nM, the IC50 [5] was 121 nM and the Ratio IC50 [6] was 13.1. The Ratio IC50 [7] was 14.8, the Activity (Lactococcus lactis [11]) was 15% and the IC50 [9] was 107 nM. The IC50 (Lactococcus lactis [10]) was 8.17 nM.
`C=C(NC(=O)[C@@H](NC(=O)[C@H](Cc1cnc[nH]1)NC(=O)[C@@H](NC(=O)[C@H](CO)NC(=O)[C@@H]1CS[C@@H](C)[C@@H]2NC(=O)[C@H](C)NC(=O)[C@@H](NC(=O)[C@H](CC(N)=O)NC(=O)[C@@H]3CS[C@@H](C)[C@H](NC(=O)[C@H](CCCCN)NC(=O)[C@@H]4CS[C@@H](C)[C@H](NC(=O)[C@@H]5CSC[C@H](NC(=O)/C(=C/C)NC(=O)[C@@H](N)[C@@H](C)CC)C(=O)N[C@@H]([C@@H](C)CC)C(=O)NC(=C)C(=O)N[C@@H](CC(C)C)C(=O)N5)C(=O)N5CCC[C@H]5C(=O)NCC(=O)N4)C(=O)NCC(=O)N[C@@H](C)C(=O)N[C@@H](CC(C)C)C(=O)N[C@@H](CCSC)C(=O)NCC(=O)N3)[C@H](C)SC[C@H](NC2=O)C(=O)N[C@@H](Cc2cnc[nH]2)C(=O)N1)[C@@H](C)CC)C(C)C)C(=O)N[C@@H](CCCCN)C(=O)O` gave a Ratio IC50 [1] of 2.5, a Ratio IC50 [2] of 5.09 and an IC50 [3] of 221 nM. For the same compound, the IC50 [4] was 109 nM, the IC50 [5] was 213 nM and the Ratio IC50 [6] was 1.66. For the same compound, the Ratio IC50 [7] was 4.9, the Activity (Lactococcus lactis [8]) was “inactive” and the IC50 [9] was 72.1 nM. For the same compound, the IC50 (Lactococcus lactis [10]) was 43.4 nM.
